Kb data for one compound are collected here from ChEMBL document CHEMBL1143231, “Specific fluorescent detection of fibrillar alpha-synuclein using mono- and trimethine cyanine dyes” (Bioorg Med Chem, 2008).

For assay [1], the species on record is Homo sapiens. The assay is described as follows: Binding affinity to human beta amyloid protein 1-40 from Alzheimers disease patient.
Assay [2] is filed under the species Homo sapiens. Description: Binding affinity to human beta amyloid protein 1-28 from Alzheimers disease patient.

With `Cc1ccc2c(c1)sc(-c1ccc(N(C)C)cc1)[n+]2C`, the Kb in the assay filed under Homo sapiens [1] was 0.5 10^6/M; in the assay filed under Homo sapiens [2] it was 1.85 10^6/M.
